From ChEMBL document CHEMBL1201862, “PubChem BioAssay data set” (2004)
Blank lines part the entries; values can stand above or below the compound they belong to. Active and inactive are the calls of the source.

Legend:
[1] = target: T1, Mannose-6-phosphate isomerase (Homo sapiens, UniProt P34949); assay: MPI inhibition at elevated mannose 6-phosphate – biochemical, fluorescence intensity, high mannose 6-phosphate, primary screen (AID 1220)
T1 sequence (P34949 whole entry): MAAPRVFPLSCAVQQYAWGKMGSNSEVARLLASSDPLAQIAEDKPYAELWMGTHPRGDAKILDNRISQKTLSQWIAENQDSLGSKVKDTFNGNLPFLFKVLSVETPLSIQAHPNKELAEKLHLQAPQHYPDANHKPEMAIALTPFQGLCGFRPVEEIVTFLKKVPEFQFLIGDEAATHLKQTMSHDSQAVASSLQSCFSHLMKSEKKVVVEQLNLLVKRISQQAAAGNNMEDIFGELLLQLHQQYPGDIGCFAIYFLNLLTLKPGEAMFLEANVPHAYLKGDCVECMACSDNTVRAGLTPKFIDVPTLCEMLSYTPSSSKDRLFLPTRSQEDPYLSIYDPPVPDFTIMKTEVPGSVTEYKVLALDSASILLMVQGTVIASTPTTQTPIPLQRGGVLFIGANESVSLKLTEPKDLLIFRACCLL

[2] = target: T2, Cytochrome P450 1A2 (Homo sapiens, UniProt P05177);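 further: PubChem cytochrome P450 panel assay, CYP1A2 panel member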
T2 sequence (P05177 whole entry): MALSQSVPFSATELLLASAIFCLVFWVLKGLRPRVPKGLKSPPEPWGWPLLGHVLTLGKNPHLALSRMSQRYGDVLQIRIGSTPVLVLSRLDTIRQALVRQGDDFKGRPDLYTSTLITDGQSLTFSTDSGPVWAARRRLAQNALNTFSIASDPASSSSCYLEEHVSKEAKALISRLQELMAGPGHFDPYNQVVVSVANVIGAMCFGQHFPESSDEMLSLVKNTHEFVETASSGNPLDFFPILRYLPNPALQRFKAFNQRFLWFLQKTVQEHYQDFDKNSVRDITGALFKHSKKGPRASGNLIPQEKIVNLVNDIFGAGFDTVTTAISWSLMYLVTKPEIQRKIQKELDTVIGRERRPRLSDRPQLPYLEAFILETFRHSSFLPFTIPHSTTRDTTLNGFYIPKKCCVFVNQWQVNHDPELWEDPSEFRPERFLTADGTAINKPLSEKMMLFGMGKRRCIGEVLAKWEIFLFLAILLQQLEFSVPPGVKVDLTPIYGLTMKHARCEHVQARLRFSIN

[3] = IC50 of Artemis nuclease activity blockers – biochemical, fluorescence intensity, dose response (AID 720701); assay type: functional;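 further: Artemis endonuclease enzyme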
[4] = target: T3, Apoptotic protease-activating factor 1 (Homo sapiens, UniProt O14727); assay type: functional
T3 sequence (O14727 whole entry): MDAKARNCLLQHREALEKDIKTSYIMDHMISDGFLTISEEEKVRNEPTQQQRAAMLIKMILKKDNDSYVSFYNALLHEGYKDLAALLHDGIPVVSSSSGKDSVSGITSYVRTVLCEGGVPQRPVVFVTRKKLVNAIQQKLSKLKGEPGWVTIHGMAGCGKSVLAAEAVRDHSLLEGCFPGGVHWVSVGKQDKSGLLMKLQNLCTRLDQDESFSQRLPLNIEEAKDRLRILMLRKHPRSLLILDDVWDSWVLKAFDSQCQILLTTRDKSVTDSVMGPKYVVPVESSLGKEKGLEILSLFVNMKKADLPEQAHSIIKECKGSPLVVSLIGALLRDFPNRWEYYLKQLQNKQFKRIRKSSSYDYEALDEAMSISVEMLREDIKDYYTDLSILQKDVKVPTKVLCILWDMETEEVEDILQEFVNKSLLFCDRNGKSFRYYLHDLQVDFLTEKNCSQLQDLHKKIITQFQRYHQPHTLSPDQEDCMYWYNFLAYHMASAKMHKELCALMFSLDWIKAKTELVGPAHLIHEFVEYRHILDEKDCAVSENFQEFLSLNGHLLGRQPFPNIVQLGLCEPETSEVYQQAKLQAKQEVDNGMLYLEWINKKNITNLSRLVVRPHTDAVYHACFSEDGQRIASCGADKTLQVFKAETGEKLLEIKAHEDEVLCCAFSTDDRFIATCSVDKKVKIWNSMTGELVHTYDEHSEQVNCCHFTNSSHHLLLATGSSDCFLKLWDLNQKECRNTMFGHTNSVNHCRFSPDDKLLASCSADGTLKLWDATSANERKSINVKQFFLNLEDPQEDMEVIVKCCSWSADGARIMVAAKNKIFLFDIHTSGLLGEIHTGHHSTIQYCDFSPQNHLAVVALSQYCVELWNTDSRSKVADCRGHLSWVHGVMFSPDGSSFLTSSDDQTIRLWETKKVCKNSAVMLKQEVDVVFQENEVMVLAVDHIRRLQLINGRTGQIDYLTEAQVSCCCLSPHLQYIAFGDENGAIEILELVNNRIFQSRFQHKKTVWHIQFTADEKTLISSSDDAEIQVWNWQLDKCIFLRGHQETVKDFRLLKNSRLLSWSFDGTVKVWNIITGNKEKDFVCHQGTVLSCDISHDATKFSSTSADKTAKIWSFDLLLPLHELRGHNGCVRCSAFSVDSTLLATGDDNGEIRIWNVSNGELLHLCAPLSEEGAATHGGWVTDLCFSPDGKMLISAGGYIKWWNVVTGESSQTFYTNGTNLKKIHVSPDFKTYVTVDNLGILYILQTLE

[5] = target: Induced myeloid leukemia cell differentiation protein Mcl-1 (Homo sapiens, UniProt Q07820); assay type: functional
Chain of Induced myeloid leukemia cell differentiation protein Mcl-1 (Q07820 whole entry): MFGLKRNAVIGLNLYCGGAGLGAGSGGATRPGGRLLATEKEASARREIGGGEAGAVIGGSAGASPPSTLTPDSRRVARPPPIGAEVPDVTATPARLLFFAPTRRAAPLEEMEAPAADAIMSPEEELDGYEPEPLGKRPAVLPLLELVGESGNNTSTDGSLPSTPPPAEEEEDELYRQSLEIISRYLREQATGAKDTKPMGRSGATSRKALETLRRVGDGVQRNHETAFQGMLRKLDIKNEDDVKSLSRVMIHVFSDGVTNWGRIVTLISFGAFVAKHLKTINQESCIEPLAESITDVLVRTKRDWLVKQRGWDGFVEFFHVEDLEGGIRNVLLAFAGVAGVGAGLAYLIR

[6] = test system: Vero; assay: viability of Vero cells under compound – cytotoxicity control for flavivirus capping enzyme inhibitors (AID 588742); assay type: functional; conditions: Chlorocebus sabaeus
[7] = toxicity to human hepatoma HepG2 cells – cell-based, cherry-picked samples, cytotoxicity control, dose response (AID 1159577); assay type: functional
[8] = P. falciparum Dd2 growth inhibitors, dose response, SYBR Green, cherry-picked samples (AID 1159567); assay type: functional, cell-based
[9] = target: Melanin-concentrating hormone receptor 1 (Homo sapiens, UniProt Q99705); assay: Fluorescence-based counterscreen for antagonists of the G-protein coupled receptor 7 (GPR7): cell-based high throughput dose response assay to identify antagonists of the melanin-concentrating hormone receptor 1 (MCHR1).; assay type: functional
Chain of Melanin-concentrating hormone receptor 1 (Q99705 whole entry): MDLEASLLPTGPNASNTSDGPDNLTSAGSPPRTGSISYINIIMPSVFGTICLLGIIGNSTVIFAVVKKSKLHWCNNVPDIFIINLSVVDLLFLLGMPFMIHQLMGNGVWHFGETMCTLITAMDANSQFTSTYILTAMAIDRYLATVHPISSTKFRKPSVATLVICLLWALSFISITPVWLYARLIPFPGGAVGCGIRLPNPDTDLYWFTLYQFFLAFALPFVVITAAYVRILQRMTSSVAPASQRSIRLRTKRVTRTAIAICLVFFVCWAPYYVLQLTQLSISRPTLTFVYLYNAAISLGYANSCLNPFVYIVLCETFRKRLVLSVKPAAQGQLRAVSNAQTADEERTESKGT

[10] = target: T4, Neuropeptides B/W receptor type 1 (Homo sapiens, UniProt P48145); assay: Fluorescence-based dose response cell-based high throughput screening assay to identify antagonists of the G-protein coupled receptor 7 (GPR7). [Related pubchem assays: 1952 (Screening assay (GPR7 antagonists).), 1880 (Summary AID.)]; assay type: functional
T4 sequence (P48145 whole entry): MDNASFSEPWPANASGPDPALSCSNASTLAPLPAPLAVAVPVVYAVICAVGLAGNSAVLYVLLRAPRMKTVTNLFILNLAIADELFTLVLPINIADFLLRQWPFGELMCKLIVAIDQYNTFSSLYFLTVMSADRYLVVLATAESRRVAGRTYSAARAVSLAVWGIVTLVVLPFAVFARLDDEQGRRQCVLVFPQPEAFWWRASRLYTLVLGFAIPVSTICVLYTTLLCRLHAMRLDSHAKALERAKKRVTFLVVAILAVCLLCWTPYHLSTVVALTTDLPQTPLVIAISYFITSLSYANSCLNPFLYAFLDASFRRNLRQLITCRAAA

[11] = target: NAD-dependent protein deacylase sirtuin-5, mitochondrial (Homo sapiens, UniProt Q9NXA8); assay: sirtuin-5 deacylation blockers, concentration series – biochemical, fluorescence imaging, cherry-pick, set 5, dose response (AID 720591);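 further: desuccinylation of succinyl peptide AMC substrate read as fluorescence after trypsin release; potency of inhibitors that lower fluorescence and may act on trypsin instead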
Chain of NAD-dependent protein deacylase sirtuin-5, mitochondrial (Q9NXA8 whole entry): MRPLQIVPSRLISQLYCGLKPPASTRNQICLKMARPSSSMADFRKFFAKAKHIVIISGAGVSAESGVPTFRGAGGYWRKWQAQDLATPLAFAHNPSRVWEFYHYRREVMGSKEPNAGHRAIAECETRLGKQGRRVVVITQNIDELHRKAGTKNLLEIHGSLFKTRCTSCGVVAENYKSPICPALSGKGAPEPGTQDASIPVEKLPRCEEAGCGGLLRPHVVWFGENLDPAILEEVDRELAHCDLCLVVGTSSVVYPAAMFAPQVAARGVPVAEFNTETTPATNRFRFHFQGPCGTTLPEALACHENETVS

[12] = OVCAR8 cell viability loss – plate reader, dry powder samples, PAX8 project, dose response (AID 743197); assay type: functional, cell-based; conditions: OVCAR-8
[13] = A2780 cell killing – plate reader, dry powder samples, cytotoxicity control, dose response (AID 743046); assay type: functional, cell-based
[14] = target: Paired box protein Pax-8 (Homo sapiens, UniProt Q06710); assay: PAX8 transcriptional activity inhibition in RMG-I – RMG-I cells, luciferase, cherry-pick, dose response (AID 687027); assay type: functional, cell-based;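 further: luciferase reporter driven by Pax8 target thyroperoxidase promoter measured by SteadyGlo luminescence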
Chain of Paired box protein Pax-8 (Q06710 whole entry): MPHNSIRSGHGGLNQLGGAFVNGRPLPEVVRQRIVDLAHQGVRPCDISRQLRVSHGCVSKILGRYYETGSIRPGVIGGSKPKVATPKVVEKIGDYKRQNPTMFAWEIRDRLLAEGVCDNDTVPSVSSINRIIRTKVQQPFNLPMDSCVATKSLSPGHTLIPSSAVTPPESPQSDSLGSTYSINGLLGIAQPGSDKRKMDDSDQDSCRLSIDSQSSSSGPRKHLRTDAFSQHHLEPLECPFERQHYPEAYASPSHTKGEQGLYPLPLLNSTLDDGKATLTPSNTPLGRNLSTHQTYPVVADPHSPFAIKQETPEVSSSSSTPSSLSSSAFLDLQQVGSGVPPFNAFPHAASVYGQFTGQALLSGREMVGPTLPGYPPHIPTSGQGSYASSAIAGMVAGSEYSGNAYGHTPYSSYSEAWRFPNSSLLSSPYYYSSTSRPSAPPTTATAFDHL

Compound: Brc1c(NC2=NCCN2)ccc2nccnc12 [BRIMONIDINE]
- IC50 [1]: > 50 µM (not active)
- AC50 [2]: 39.8 µM (inconclusive)

Compound: Oc1nc2cc3c(cc2cc1CN(Cc1cccnc1)C(S)=NCc1ccco1)OCCO3
- IC50 [1]: > 50 µM (not active)

Compound: Cc1ccc(N=Nc2c(N)nn3c(O)cc(-c4ccccc4)nc23)cc1
- IC50 [4]: 13.8 µM (active)
- IC50 [5]: 12.9 µM (active)
- CC50 [6]: 25.1 µM (active)
- IC50 [3]: 16.9 µM (active)

Compound: CCCNC(=O)N1CC2(CCN(Cc3cccc(OC)c3)CC2)c2c(n(C)c3cc(OC)ccc23)[C@@H]1CO
- AC50 [7]: 21.1 µM (active)
- AC50 [8]: 4.94 µM (active)

Compound: C[C@H](CO)N1C[C@H](C)[C@@H](CN(C)Cc2ccc(Cl)c(Cl)c2)OCCCC[C@H](C)Oc2ccc(NS(=O)(=O)c3ccc(F)cc3)cc2C1=O
- AC50 [12]: > 70 µM (inactive)
- AC50 [13]: 49.6 µM (active)
- AC50 [14]: 15.6 µM (active)

Results, then the compound that gave them:

- IC50 [3]: > 20 µM (inactive)
Compound: CCOc1cccc(C(=O)NC(=S)Nc2ccc(N3CCCC3)cc2)c1

- IC50 [9]: 12.6 µM (not active)
- IC50 [10]: 27.3 µM (not active)
Compound: CCOc1ccc([N+](=O)[O-])cc1CNC1CCCCCCC1

- AC50 [11]: > 30 µM (inactive)
Compound: NS(=O)(=O)c1cnccc1Nc1ccc(Cl)cc1
